Where a name gives a salt, the structure may show the parent alone. Activity calls are given as the source filed them.
Legend:
Prothrombin = Prothrombin (Homo sapiens, UniProt P00734); assay: Thrombin 1536 HTS Dose Response Confirmation. [Related pubchem assays: 1046 (Thrombin 1536 HTS; hits were confirmed in this assay)]; assay type: functional
Streptococcus = assay: Streptococcus pyogenes growth inhibition counter-screen, dose response, counter-screen for streptokinase expression inhibitor project, luminescence, BacTiter-Glo, strain UMAA2166 (AID 2477); assay type: functional, organism-based
Streptokinase A = molecular target: T1, Streptokinase A (Streptococcus pyogenes serotype M1, UniProt P10520); assay: Absorbance Microorganism-Based Dose Response Follow up to Identify Inhibitors of Streptokinase Expression. [Related pubchem assays: 1677 (Project Summary), 1915, 1914, 1902 (Retest at Dose), 1900 (Counter Screen), 1662 (Primary HTS)]; assay type: functional, Streptococcus pyogenes M1 GAS
T1 sequence (P10520 whole entry): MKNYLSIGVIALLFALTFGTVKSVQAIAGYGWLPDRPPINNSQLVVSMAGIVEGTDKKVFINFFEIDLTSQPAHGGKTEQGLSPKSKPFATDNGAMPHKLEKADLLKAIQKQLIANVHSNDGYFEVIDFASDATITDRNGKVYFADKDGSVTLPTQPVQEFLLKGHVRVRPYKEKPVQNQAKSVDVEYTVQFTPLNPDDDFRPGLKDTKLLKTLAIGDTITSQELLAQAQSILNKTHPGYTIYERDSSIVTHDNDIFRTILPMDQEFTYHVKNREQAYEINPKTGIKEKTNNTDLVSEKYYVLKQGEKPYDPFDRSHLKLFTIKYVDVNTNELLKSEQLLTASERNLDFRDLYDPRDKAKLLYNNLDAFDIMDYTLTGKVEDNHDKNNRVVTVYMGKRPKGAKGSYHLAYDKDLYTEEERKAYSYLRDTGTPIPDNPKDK

[1] = molecular target: T2, 1-phosphatidylinositol 4,5-bisphosphate phosphodiesterase gamma-1 (Homo sapiens, UniProt P19174); assay: Counterscreen for inhibitors of phospholipase C isozymes (PLC-B3): Fluorescence-based biochemical high throughput dose response assay to identify inhibitors of phospholipase C isozymes (PLC-gamma1).
T2 sequence (P19174 whole entry): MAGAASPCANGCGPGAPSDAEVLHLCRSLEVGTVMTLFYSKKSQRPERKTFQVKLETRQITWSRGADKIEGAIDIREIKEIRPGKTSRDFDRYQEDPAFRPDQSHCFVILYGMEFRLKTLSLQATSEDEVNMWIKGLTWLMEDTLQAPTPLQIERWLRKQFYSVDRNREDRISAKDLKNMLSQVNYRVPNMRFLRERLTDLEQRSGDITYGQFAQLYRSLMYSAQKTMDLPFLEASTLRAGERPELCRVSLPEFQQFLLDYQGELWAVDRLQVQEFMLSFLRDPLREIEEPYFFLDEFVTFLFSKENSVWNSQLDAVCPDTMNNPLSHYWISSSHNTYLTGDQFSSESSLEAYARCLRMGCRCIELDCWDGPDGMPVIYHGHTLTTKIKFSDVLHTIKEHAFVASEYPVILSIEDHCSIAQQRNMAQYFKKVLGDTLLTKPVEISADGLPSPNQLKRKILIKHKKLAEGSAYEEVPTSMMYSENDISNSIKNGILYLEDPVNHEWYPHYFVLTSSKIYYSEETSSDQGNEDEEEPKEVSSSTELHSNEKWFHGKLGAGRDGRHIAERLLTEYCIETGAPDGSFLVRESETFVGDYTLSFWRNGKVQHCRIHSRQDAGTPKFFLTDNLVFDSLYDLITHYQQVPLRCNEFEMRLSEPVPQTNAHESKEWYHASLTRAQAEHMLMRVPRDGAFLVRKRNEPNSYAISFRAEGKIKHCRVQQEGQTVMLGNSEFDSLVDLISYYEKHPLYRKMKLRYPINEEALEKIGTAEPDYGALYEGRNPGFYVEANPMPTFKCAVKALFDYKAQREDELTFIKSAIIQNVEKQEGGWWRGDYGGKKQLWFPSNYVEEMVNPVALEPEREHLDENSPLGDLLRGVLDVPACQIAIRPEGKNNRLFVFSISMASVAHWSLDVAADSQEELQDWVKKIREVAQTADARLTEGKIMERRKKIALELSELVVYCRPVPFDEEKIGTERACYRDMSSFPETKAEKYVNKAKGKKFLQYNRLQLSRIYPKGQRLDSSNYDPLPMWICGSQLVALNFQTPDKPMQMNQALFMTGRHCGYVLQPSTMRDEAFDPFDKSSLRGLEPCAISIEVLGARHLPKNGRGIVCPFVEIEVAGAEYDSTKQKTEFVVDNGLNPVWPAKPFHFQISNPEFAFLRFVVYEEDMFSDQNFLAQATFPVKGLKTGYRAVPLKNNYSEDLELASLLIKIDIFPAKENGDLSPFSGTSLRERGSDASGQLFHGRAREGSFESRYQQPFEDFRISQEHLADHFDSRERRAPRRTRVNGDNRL

Cytochrome P450 2D6 = Cytochrome P450 2D6 (Homo sapiens, UniProt P10635);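 note: CYP2D6 member of a cytochrome P450 panel assay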
[2] = molecular target: T3, 1-phosphatidylinositol 4,5-bisphosphate phosphodiesterase beta-3 (Homo sapiens, UniProt Q01970); assay: Fluorescence-based biochemical high throughput dose response assay to identify inhibitors of phospholipase C isozymes (PLC-B3).
T3 sequence (Q01970 whole entry): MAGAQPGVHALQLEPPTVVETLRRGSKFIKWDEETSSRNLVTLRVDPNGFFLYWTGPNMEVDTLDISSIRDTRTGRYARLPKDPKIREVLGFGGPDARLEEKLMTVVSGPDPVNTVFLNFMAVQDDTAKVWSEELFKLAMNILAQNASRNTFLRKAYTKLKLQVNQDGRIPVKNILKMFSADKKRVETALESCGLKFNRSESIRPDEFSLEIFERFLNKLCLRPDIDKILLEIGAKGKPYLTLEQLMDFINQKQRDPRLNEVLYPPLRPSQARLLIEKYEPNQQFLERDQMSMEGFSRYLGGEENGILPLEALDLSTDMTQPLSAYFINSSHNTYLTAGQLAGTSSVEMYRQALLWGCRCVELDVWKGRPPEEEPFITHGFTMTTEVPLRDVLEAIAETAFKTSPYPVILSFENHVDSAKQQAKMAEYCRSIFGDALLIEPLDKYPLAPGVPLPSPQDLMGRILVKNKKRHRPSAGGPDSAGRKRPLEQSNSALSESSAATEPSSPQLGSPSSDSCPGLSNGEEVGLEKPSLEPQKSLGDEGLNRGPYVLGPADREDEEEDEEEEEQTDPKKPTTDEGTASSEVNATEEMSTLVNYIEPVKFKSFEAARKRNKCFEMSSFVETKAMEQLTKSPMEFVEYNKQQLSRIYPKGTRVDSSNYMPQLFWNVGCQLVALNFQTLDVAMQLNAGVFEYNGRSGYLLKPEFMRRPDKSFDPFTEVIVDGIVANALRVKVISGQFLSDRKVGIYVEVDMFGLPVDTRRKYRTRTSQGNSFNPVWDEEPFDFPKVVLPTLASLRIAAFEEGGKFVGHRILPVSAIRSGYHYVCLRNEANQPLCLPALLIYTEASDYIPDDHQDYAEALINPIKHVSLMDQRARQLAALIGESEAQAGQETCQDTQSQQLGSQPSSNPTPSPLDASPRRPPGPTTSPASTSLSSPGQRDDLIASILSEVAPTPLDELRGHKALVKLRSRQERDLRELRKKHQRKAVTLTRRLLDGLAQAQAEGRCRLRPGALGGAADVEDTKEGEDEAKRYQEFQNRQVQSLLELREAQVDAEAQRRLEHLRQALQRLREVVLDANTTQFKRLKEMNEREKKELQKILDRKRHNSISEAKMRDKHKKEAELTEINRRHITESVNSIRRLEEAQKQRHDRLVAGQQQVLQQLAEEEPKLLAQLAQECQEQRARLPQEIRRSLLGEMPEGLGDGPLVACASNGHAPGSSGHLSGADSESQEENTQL

[3] = cytotoxicity in HPDE-C7 cells, cell-based, fluorescence, HTS (AID 430); assay type: functional; settings: Homo sapiens
[4] = cytotoxicity in KRAS-transformed pancreatic duct cells, primary screen, cell-based, fluorescence, HTS (AID 431); assay type: functional; settings: Homo sapiens;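 note: cell line used: HPDE-C7K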
[5] = molecular target: Induced myeloid leukemia cell differentiation protein Mcl-1 (Homo sapiens, UniProt Q07820); assay type: functional
[6] = molecular target: T4, Mannose-6-phosphate isomerase (Homo sapiens, UniProt P34949); assay: human PMI inhibitors, high substrate, primary screen, biochemical, fluorescence intensity, high mannose 6-phosphate (AID 1220)
T4 sequence (P34949 whole entry): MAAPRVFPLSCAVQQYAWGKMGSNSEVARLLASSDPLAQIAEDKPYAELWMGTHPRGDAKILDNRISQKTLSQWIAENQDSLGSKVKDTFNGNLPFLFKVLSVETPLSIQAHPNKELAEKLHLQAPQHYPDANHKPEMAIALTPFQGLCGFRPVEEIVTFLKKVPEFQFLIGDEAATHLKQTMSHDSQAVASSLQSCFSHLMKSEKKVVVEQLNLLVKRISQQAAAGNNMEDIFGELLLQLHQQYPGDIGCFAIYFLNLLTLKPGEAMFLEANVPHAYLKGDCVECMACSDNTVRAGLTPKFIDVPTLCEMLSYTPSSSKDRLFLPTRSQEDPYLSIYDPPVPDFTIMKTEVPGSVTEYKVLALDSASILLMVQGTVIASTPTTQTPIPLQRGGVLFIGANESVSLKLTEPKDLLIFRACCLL

INS1 = assay: beta cell apoptosis inhibitors, cytokine rescue, dose response, luminescence, retest (AID 449756); assay type: functional, cell-based; settings: Rattus norvegicus;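 note: cell death triggered by IL-1 beta plus TNF-alpha plus IFN-gamma mixture; protective hits raise ATP signal compared with cytokine alone wells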
[7] = C. albicans growth with fluconazole, confirmation, fluorescence, retest (AID 2467); assay type: functional, cell-based
[8] = inhibitors of intracellular T. cruzi replication, confirmation, NIH3T3 host cells, beta-gal luminescence (AID 2044); assay type: functional, cell-based;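 note: intracellular parasites grown in NIH/3T3 mouse fibroblasts as host cells; luminescent beta-galactosidase reporter signal from transgenic T. cruzi replicating inside host cells; inhibitors lower the luminescence signal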
Nonstructural protein 1 = Nonstructural protein 1 (Influenza A virus, UniProt Q194T2); assay type: functional, Influenza A virus (A/California/07/2009(H1N1))
[9] = cytotoxicity toward NIH3T3 fibroblasts, dose response, counter-screen, cell-based, ATP luminescence, mouse fibroblasts (AID 2010); assay type: functional;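 note: cells exposed to compound for about 90 hours before reading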
[10] = NIH-3T3 fibroblast cytotoxicity, dose response, cytotoxicity control, cell-based, fluorescence, Alamar Blue, secondary assay (AID 2327); assay type: functional;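 note: NIH-3T3 mouse fibroblasts cultured with fluconazole at 8 µg/mL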
Caspase-6 = molecular target: T5, Caspase-6 (Homo sapiens, UniProt P55212); assay: human caspase-6 inhibitors, dose response, biochemical, VEID-R110 fluorescence, cherry-pick (AID 720632)
T5 sequence (P55212 whole entry): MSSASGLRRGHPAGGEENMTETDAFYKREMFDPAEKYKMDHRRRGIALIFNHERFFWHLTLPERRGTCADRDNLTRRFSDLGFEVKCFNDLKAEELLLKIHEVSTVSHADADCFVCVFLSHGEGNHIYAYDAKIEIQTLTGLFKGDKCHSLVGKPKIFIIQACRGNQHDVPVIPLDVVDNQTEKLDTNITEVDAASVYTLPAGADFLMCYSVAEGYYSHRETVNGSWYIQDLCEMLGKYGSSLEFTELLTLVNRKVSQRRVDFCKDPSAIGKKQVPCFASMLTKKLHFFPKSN

[11] = molecular target: Voltage-dependent T-type calcium channel subunit alpha-1H (Homo sapiens, UniProt O95180); assay type: functional;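 note: channel activity triggered by adding a high calcium stimulation buffer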
[12] = Luminescence Cell-Based Dose Retest to Confirm Inhibitors of Cancer Stem Cells. [Related pubchem assays (depositor defined):AID2717, AID2721]; assay type: functional; settings: Homo sapiens

Chain of Voltage-dependent T-type calcium channel subunit alpha-1H (O95180 whole entry): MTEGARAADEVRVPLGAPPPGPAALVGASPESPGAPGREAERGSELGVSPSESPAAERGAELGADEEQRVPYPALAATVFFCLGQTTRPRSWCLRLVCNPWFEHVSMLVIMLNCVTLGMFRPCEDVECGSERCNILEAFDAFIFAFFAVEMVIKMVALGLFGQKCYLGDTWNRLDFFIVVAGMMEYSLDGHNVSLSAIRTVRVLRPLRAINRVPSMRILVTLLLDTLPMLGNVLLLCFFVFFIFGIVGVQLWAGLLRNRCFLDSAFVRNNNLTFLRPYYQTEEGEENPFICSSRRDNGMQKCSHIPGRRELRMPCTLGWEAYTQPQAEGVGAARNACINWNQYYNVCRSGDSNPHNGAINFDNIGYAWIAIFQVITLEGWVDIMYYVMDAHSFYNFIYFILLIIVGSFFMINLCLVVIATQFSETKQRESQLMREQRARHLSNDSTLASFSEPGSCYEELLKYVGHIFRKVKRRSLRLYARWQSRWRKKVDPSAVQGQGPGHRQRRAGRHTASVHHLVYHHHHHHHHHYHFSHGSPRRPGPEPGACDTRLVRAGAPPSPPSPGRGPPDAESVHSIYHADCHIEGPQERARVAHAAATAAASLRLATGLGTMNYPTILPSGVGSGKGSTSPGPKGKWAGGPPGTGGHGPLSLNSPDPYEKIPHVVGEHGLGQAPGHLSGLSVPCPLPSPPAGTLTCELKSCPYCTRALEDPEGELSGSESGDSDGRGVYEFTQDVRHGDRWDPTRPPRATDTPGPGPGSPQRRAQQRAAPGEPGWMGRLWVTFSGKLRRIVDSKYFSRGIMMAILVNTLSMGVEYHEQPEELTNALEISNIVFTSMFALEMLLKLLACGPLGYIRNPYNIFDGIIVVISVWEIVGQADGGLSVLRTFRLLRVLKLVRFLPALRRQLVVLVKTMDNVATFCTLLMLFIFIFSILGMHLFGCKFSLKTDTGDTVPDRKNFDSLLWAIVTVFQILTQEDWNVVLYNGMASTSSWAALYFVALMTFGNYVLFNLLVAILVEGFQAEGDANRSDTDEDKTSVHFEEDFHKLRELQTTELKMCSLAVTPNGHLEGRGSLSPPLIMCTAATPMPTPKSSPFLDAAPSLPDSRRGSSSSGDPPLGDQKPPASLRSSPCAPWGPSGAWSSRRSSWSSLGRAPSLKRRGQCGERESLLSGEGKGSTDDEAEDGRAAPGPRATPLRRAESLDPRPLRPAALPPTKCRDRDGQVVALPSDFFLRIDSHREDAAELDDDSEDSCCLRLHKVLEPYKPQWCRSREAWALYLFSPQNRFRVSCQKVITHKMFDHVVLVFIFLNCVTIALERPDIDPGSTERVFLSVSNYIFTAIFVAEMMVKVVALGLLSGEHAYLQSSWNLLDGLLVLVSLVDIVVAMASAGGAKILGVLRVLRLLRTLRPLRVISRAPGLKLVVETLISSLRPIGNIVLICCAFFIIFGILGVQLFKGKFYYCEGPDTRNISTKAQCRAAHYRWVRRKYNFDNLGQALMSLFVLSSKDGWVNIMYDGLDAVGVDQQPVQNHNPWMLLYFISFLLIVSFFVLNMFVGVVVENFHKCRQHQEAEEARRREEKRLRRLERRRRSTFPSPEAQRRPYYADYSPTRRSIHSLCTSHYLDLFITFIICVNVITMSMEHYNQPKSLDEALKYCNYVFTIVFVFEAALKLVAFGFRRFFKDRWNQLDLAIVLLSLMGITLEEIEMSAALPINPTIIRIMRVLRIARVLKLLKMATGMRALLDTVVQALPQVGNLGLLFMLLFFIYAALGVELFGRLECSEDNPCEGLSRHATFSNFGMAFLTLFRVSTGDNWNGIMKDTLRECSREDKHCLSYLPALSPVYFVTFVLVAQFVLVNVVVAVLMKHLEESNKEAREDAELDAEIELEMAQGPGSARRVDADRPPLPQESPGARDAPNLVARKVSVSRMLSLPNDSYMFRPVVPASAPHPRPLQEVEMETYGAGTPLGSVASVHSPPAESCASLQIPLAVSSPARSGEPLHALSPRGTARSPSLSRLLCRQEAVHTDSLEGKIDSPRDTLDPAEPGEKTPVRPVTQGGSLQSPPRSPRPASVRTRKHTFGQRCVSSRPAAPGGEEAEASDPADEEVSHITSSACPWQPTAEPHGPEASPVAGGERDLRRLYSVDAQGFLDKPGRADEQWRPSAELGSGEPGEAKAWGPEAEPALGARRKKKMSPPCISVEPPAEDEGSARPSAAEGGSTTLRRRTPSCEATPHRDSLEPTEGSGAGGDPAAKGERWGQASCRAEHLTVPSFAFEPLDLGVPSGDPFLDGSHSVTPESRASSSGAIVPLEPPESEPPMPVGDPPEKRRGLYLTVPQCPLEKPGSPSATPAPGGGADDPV
Chain of Induced myeloid leukemia cell differentiation protein Mcl-1 (Q07820 whole entry): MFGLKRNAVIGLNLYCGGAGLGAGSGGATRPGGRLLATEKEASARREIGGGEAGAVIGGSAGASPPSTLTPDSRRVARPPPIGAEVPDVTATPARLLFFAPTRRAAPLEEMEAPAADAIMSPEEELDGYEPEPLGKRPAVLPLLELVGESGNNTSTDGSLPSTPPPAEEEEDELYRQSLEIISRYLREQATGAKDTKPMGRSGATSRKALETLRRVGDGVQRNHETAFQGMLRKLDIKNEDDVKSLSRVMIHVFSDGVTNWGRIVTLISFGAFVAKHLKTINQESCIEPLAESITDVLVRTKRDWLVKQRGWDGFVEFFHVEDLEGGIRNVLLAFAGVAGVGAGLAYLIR
Chain of Cytochrome P450 2D6 (P10635 whole entry): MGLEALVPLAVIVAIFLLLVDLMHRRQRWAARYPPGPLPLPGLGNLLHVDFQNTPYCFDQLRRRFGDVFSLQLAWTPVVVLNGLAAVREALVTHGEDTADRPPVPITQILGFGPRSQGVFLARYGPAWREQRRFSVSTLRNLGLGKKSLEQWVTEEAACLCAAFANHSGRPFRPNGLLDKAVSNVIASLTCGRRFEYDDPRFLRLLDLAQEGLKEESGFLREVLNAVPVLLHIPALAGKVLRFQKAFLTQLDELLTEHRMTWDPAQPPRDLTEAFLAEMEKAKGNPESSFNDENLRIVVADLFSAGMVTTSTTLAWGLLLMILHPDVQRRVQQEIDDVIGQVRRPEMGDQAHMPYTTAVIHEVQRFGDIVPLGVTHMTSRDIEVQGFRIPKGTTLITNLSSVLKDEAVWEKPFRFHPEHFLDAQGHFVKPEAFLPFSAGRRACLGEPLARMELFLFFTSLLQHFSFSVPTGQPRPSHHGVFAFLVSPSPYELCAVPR
Chain of Nonstructural protein 1 (Q194T2 whole entry): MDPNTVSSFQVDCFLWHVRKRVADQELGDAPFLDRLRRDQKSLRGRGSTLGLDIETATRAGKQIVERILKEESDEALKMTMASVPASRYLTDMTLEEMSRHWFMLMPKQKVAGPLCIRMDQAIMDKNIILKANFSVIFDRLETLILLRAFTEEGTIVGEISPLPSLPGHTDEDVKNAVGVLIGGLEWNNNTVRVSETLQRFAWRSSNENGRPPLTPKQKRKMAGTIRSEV

Structure (SMILES): Cc1cc(C(=O)OCC(=O)c2cccc([N+](=O)[O-])c2)c2cccc(C)c2n1
- IC50 (Prothrombin): > 50 µM (inconclusive)

Structure (SMILES): CCc1nccn1C(=O)c1cnn2c(C(F)F)cc(-c3ccccc3)nc12
- IC50 (Prothrombin): 0.916 µM (active)

Structure (SMILES): CCCOc1ccc(-c2nc(Oc3ccc(OC)cc3)c3ccccc3n2)cc1
- EC50 (Streptococcus): > 500 µM (not active)
- EC50 (Streptokinase A): 179 µM (active)

Structure (SMILES): O=C(Cc1cccs1)N1CCC(c2nc3c(nnn3Cc3ccccc3Cl)c(=O)[nH]2)CC1
- IC50 [1]: > 122 µM (inactive)
- AC50 (Cytochrome P450 2D6): 14.1 µM (inconclusive)
- IC50 [2]: > 122 µM (inactive)

Structure (SMILES): Cc1ccc(-n2c(C)cc(C3N=C(N)Nc4nc5ccccc5n43)c2C)c(C)c1 (stereo not given)
- EC50 [3]: 11 µM (active)
- EC50 [4]: 12.7 µM (active)

Structure (SMILES): COc1ccc(N2CCC(CNS(=O)(=O)c3cccc(C(F)(F)F)c3)C2)cc1 (stereo not given)
- IC50 [5]: > 54 µM (active)
- IC50 [6]: > 50 µM (not active)

Structure (SMILES): COc1nc(-c2ccccc2)nc2ccccc12
- EC50 (Streptococcus): > 500 µM (not active)
- EC50 (Streptokinase A): 75.4 µM (active)

Structure (SMILES): CCOC(=O)C1CCN(Cc2ccc(O)c3ncccc23)CC1
- AC50 (INS1): 3.76 µM (active)
- EC50 [7]: > 38 µM (not active)
- EC50 [8]: 3.26 µM (active)
- IC50 [6]: > 50 µM (not active)
- IC50 (Nonstructural protein 1): 5.25 µM (active)
- EC50 [9]: > 60 µM (not active)
- EC50 [10]: 22.2 µM (active)

Structure (SMILES): COC(=O)COc1nc(C)c2c(c1C#N)CC(C)(C)OC2
- IC50 [1]: > 123 µM (inactive)
- IC50 [2]: > 123 µM (inactive)

Structure (SMILES): Cc1ccc(/C=C/C2=Cc3c(sc(NC(=O)CSc4n[nH]c(N)n4)c3C#N)C(C)(C)C2)o1
- EC50 [3]: 7.52 µM (active)
- EC50 [4]: 7.17 µM (active)

Structure (SMILES): O=[N+]([O-])c1cccc(NS(=O)(=O)c2ccc(-c3ccc(O)nn3)s2)c1
- AC50 (Caspase-6): 40.3 µM (active)

Structure (SMILES): Cc1cccc(C)c1NC(=S)N/N=C/c1c(Cl)cccc1Cl
- IC50 (Prothrombin): > 50 µM (not active)

Structure (SMILES): Fc1ccc(C(c2ccc(F)cc2)N2CCN(C/C=C/c3ccccc3)CC2)cc1 [FLUNARIZINE DIHYDROCHLORIDE]
- EC50 [3]: 5.99 µM (active)
- EC50 [4]: 5.85 µM (active)
- EC50 [11]: 5.62 µM (active)
- AC50 [12]: 4.94 µM (active)
